Data as given in patent US20060122279A1, “Hydrophobic polyamine amides as potent lipopolysaccharide sequestrants” (priority 2004, published 2006).
pEC50, pIC50: −log10 of the molar value. Where two headings read alike, the source gives them in different places.

Tests used:
[1] = assay type: binding, E. coli 0111:B4; details: E. coli 0111:B4 LPS; Tables 1-3; read-out: ED50 (half-maximal effective displacement of BC probe from LPS)
Procedure: Polymyxin B (PMB), a peptide antibiotic known to bind and neutralize LPS^47 serves as the positive control and reference compound for every plate, enabling the quantitative assessment of repeatability and reproducibility (CV and Z′ factors) for the assay. Robotic liquid handling is performed on a Precision 2000 automated microplate pipetting system, programmed using the Precision Power software, Bio-Tek Instruments Inc., VT, USA. Stock solutions of LPS (5 mg/ml; E. coli 0111:B4; procured from Sigma) and BC (500 μM) are prepared in Tris buffer (pH 7.4, 50 mM). 1 ml each of the LPS and BC stocks are mixed and diluted in Tris buffer to a final volume of 100 ml, yielding final concentrations of 50 μg/ml of LPS and 5 μM BC. 40 μl of this BC:LPS mixture is added to each well of the plate using the Precision 2000. Fluorescence measurements are made at 25° C. on a Fluoromax-3 with Micromax Microwell 384-well plate reader, using DataMax software, Jobin Yvon Inc., N.J. The BC excitation wavelength is 580 nm, emission spectra are taken at 620 nm with both emission and excitation monochromator bandpasses set at 5 nm.

[2] = tested on: murine macrophage J774.A1 cells; experiment: Nitric oxide (NO) inhibition in LPS-stimulated J774.A1 cells (Griess); assay type: cell-based
Procedure: Murine monocytes (J774.A1 cells) produce measurable quantities of NO on exposure to LPS and provide a model for the rapid assessment of compounds to neutralize LPS activity. […] In all experiments, Polymyxin B (PMB), a decapeptide antibiotic, known to bind and neutralize LPS,^29;47;48 is used as a reference compound.
Nitric oxide production is measured as total nitrite in murine macrophage J774.A1 cells using the Griess reagent system.^53;54 Murine macrophage J774.A1 cells are grown in RPMI-1640 cell-culture medium containing L-glutamine and sodium bicarbonate and supplemented with 10% fetal bovine serum, 1% L-glutamine-penicillin-streptomycin solution, and 200 μg/ml L-arginine at 37° C. in a 5% CO2 atmosphere. Cells are plated at ˜2×10^6/ml in a volume of 40 μl/well, in 384 well, flat-bottomed, cell culture treated microtiter plates until confluency and subsequently stimulated with 100 ng/ml lipopolysaccharide (LPS). Concurrent to LPS stimulation, serially diluted concentrations of test compounds are added to the cell medium and left to incubate overnight for 16 h. Polymyxin B is used as reference compound in each plate. Positive—(LPS stimulation only) and negative-controls (J774.A1 medium only) are included in each experiment. Nitrite concentrations are measured adding 30 μl of supernatant to equal volumes of Griess reagents (50 μl/well; 0.1% NED solution in ddH2O and 1% sulfanilamide, 5% phosphoric acid solution in ddH2O) and incubating for 15 minutes at room temperature in the dark. Absorbance at 535 nm is measured using a Molecular Devices Spectramax M2 multifunction plate reader (Sunnyvale, Calif.). Nitrite concentrations are interpolated from standard curves obtained from serially diluted sodium nitrite standards.

[3] = Mus musculus, J774.A1, 16 h, J774.A1 cells, 100 ng/ml LPS, 16 h, Tables 1-3, read-out: NO IC50
[4] = J774.A1 cells, 100 ng/ml LPS, 16 h, Tables 1-3, read-out: NO IC50
[5] = Table 7 focused library, NO inhibition, read-out: NO
[6] = Mus musculus, J774.A1, 16 h, read-out: NO IC50, J774.A1 cells, 100 ng/ml LPS, 16 h, Tables 1-3

SMILES	pEC50 [1]	pIC50 [2, 5]	also measured
CCCCCC/C=C/CCCCCCCCCC(=O)NCCCCC(N)C(=O)NCCCNCCCCNCCCN (centres unmarked) [Compound 10]	5.38	–	–
CCCCCCCCCCCCCCCCC(=O)NCCCCC(N)C(=O)NCCCNCCCCNCCCN [Compound 11, L-Lys-ε-(heptadecanoyl)-N^1-spermine]	5.17	–	pIC50 [2, 3]: 5.35
CCCCCCCCCCCCCCCCS(=O)(=O)NCCCCC(N)C(=O)NCCCNCCCCNCCCN [Compound 12, L-Lys-ε-(hexadecanesulfonamide)-N^1-spermine]	5.23	–	–
CCCCCCCCCCCCCCCC(=O)NCCCCC(N)C(=O)NCCCNCCCCNCCCN [Compound 13, D-Lys-ε-(palmitoyl)-N^1-spermine]	5.00	4.89	pIC50 [2, 4]: 5.64
CCCC/C=C/CCCCCCCCCC(=O)NCCCCC(N)C(=O)NCCCNCCCCNCCCN (centres unmarked) [Compound 15]	5.42	–	pIC50 [2, 4]: 5.05; pIC50 [2, 6]: 5.06
CCCCCCCC(=O)NCCCCC(N)C(=O)NCCCNCCCCNCCCN [Compound 17, L-Lys-ε-(octanoyl)-N^1-spermine]	4.89	–	pIC50 [2, 4]: 3.79; pIC50 [2, 3]: 3.80
CC(C)C(=O)NCCCCC(N)C(=O)NCCCNCCCCNCCCN [Compound 18, D-Lys-ε-(isopropoyl)-N^1-spermine]	3.52	–	pIC50 [2, 3]: < 3.00
CC(C)(C)C(=O)NCCCCC(N)C(=O)NCCCNCCCCNCCCN (centres unmarked) [Compound 19]	3.49	–	pIC50 [2, 3]: < 3.00
NCCCNCCCCNCCCNC(=O)C(N)CCCCNC(=O)CC1CC2CCC1C2 [Compound 20, D-Lys-ε-(2-norbornaneacetoyl)-N^1-spermine]	4.79	–	–
NCCCNCCCCNCCCNC(=O)C(N)CCCCNC(=O)c1ccc(-c2ccccc2)cc1 [Compound 21, D-Lys-ε-(4-biphenycarboxamide)-N^1-spermine]	5.10	–	pIC50 [2, 4]: 3.91; pIC50 [2, 6]: < 4.00
NCCCNCCCCNCCCNC(=O)C(N)CCCCNC(=O)CCCc1ccc2ccc3cccc4ccc1c2c34 [Compound 22, L-Lys-ε-(4-(1-pyrene)-butanoyl)-N^1-spermine]	5.15	–	pIC50 [2, 4]: 3.97; pIC50 [2, 6]: < 4.00
COCCOCCOCC(=O)NCCCCC(N)C(=O)NCCCNCCCCNCCCN [Compound 24, L-Lys-ε-(2-[2-(2-methoxyethoxy)ethoxy]acetoyl)-N^1-spermine]	3.24	–	pIC50 [2, 3]: < 3.00; pIC50 ([2]; Mus musculus, J774.A1, read-out: IC50 (LPS neutralization, NO)): < 3.00
CCCCCCCCCCCCCC(=O)NCCCCC(N)C(=O)NCCCNCCCCNCCCN (centres unmarked) [Compound 41]	–	4.59	–
CCCCCCCCCCCCCCCCCCCC(=O)NCCCCC(N)C(=O)NCCCNCCCCNCCCN (centres unmarked) [Compound 42]	–	5.24	–
CCCCCCCCCCCCCCNCCCCC(N)C(=O)NCCCNCCCCNCCCN (centres unmarked) [Compound 43]	–	5.21	–
CCCCCCCCCCCCCCCCCCCCNCCCCC(N)C(=O)NCCCNCCCCNCCCN (centres unmarked) [Compound 45]	–	5.44	–
CCCCCCCCCCCCCCNCCCCC(N)C(=O)NCCCNCCCCNCCCN (centres unmarked) [Compound 46]	–	5.27	–
CCCCCCCCCCCCCCCCNCCCCC(N)C(=O)NCCCNCCCCNCCCN (centres unmarked) [Compound 47]	–	5.16	–
CCCCCCCCCCCCCCCCCCCCNCCCCC(N)C(=O)NCCCNCCCCNCCCN (centres unmarked) [Compound 49]	–	5.66	–
CCCCCCCCCCCCCC(=O)NCCCCCC(=O)NCCCNCCCCNCCCN [Compound 50]	–	4.32	–
CCCCCCCCCCCCCCCCCC(=O)NCCCCCC(=O)NCCCNCCCCNCCCN [Compound 52]	–	4.53	–
CCCCCCCCCCCCCCCCCCCC(=O)NCCCCCC(=O)NCCCNCCCCNCCCN [Compound 53]	–	4.58	–
CCCCCCCCCCCCCCNCCCCCC(=O)NCCCNCCCCNCCCN [Compound 54]	–	5.02	–
CCCCCCCCCCCCCCCCNCCCCCC(=O)NCCCNCCCCNCCCN [Compound 55]	–	5.21	–
CCCCCCCCCCCCCCCCCCNCCCCCC(=O)NCCCNCCCCNCCCN [Compound 56]	–	5.27	–
CCCCCCCCCCCCCCCCCCCCNCCCCCC(=O)NCCCNCCCCNCCCN [Compound 57]	–	5.30	–
